Reference: patent US20240109937A1, “BINDING PEPTIDES AND USES THEREOF” (The Johns Hopkins University, priority 2021, published 2024)

Assays:
Dsg2^mut/mut ES-CMs = assay: FACS analysis of apoptosis (AnnexinV/propidium iodide) in ISO/Ca2+-treated ES-CMs; assay type: cell-based, mouse; details: 7 days, 5 μM or 25 μM peptide
Procedure: Mouse embryonic stem cells (ESs) were maintained and differentiated, and the absence of mycoplasma contamination was confirmed prior to experimental studies. Briefly, mouse ESs from both WT and Dsg2^mut/mut mice were derived from E3.5 embryos and maintained on gelatin-coated dishes in maintenance medium (Glasgow minimum essential medium supplemented with 10% fetal bovine serum and 3 μM Chir99021 and 1 μM PD98059 or 1000 U/ml ESGRO; Millipore), Glutamax, sodium pyruvate, and MEM non-essential amino acids (Thermo Fisher Scientific). For cardiomyocyte (CM) differentiation, ESs were plated in IMDM/Ham's F12 (Cellgro, at 3:1) supplemented with N2, B27, penicillin/streptomycin, 2 mM GlutaMAX, 0.05% BSA, 5 ng/ml L-ascorbic acid (Sigma-Aldrich), and α-monothioglycerol (MTG; Sigma-Aldrich) at a final density of 100,000 cells/ml to allow spheroid formation. After 48 hours, embryoid bodies were collected and transferred to ultra-low attachment plastic surface and induced for 40 hours with Activin A and Bmp4 (R&D Systems). Cells were then dissociated and plated as monolayers for 48 hours in the presence of 10 μM XAV to allow cardiomyocyte differentiation. […] (4) After 7 days of treatment, ES-CMs were stained with AnnexinV in a buffer containing 10 mM HEPES (pH 7.4), 140 mM NaCl, 2.5 mM CaCl2, followed by the addition of 1 mg/ml propidium iodide and analyzed by flow cytometry.

HMGB1 = HMGB1 cytosolic/nuclear levels in ISO/Ca2+-treated ES-CMs; assay type: cell-based, mouse; details: ISO/Ca2+-treated Dsg2^mut/mut ES-CMs, 7 days, peptide
Procedure: Mouse embryonic stem cells (ESs) were maintained and differentiated, and the absence of mycoplasma contamination was confirmed prior to experimental studies. Briefly, mouse ESs from both WT and Dsg2^mut/mut mice were derived from E3.5 embryos and maintained on gelatin-coated dishes in maintenance medium (Glasgow minimum essential medium supplemented with 10% fetal bovine serum and 3 μM Chir99021 and 1 μM PD98059 or 1000 U/ml ESGRO; Millipore), Glutamax, sodium pyruvate, and MEM non-essential amino acids (Thermo Fisher Scientific). For cardiomyocyte (CM) differentiation, ESs were plated in IMDM/Ham's F12 (Cellgro, at 3:1) supplemented with N2, B27, penicillin/streptomycin, 2 mM GlutaMAX, 0.05% BSA, 5 ng/ml L-ascorbic acid (Sigma-Aldrich), and α-monothioglycerol (MTG; Sigma-Aldrich) at a final density of 100,000 cells/ml to allow spheroid formation. After 48 hours, embryoid bodies were collected and transferred to ultra-low attachment plastic surface and induced for 40 hours with Activin A and Bmp4 (R&D Systems). Cells were then dissociated and plated as monolayers for 48 hours in the presence of 10 μM XAV to allow cardiomyocyte differentiation. The resulting ES-CMs were cultured 45 days before experimental procedures were performed. […]

tAIF = assay: Nuclear import and localization of tAIF in ISO/Ca2+-treated ES-CMs; assay type: cell-based, mouse; details: ISO/Ca2+-treated Dsg2^mut/mut ES-CMs, 7 days
Procedure: Mouse embryonic stem cells (ESs) were maintained and differentiated, and the absence of mycoplasma contamination was confirmed prior to experimental studies. Briefly, mouse ESs from both WT and Dsg2^mut/mut mice were derived from E3.5 embryos and maintained on gelatin-coated dishes in maintenance medium (Glasgow minimum essential medium supplemented with 10% fetal bovine serum and 3 μM Chir99021 and 1 μM PD98059 or 1000 U/ml ESGRO; Millipore), Glutamax, sodium pyruvate, and MEM non-essential amino acids (Thermo Fisher Scientific). […]
All myocardium (sedentary and exercised mouse cohorts and patient myocardial biopsies) were formalin-fixed and paraffin-embedded (FFPE). […] Following three additional washes, ProLong Gold Antifade Mountant with DAPI (Thermofisher, 936931) were applied, and slides were coverslipped, and immunoreactive signal was detected via laser scanning microscopy (Zeiss LSM 510 Meta). […]
Following immunostaining, AIF-fluorescence and nuclear fluorescence (DAPI) were detected via laser scanning microscopy (Zeiss LSM 510 Meta) via a sequential fashion to avoid crosstalk between fluorophores. Merged images were obtained using Zeiss LSM software, and approximately 3-10 Regions of Interest (ROIs) were assessed per condition (mouse myocardium and patient myocardial biopsies). […]

PPIA = PPIA (Homo sapiens, UniProt P62937); details: read-out: KD, affinity to PPIA-binding; cited from earlier work
Sequence of PPIA (P62937 whole entry, species assumed): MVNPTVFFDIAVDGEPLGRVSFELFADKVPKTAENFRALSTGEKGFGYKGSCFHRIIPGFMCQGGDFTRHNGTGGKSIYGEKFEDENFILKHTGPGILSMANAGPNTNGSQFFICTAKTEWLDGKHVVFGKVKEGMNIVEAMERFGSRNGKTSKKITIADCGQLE

HT-22 cells = details: cited from earlier work

Substance | apoptosis (FACS) (Dsg2^mut/mut ES-CMs) | increased cytosolic and decreased nuclear HMGB1 levels (HMGB1) | PPIA-mediated nuclear import of tAIF (immunoblot) (tAIF) | tAIF nuclear localization (immunostaining) (tAIF) | Kd (PPIA) | neuroprotective effects in HT-22 cells during the oxidative stress (HT-22 cells)
NH2-GRKKRRQRRR(βAla)QSVGVSSGKLLIKLKDGRKVETDHI-NH2 (GRKKRRQRRRAQSVGVSSGKLLIKLKDGRKVETDHI; C-terminal amide; MOD_RES (11)..(11) 1,2-dihydro-3(6h)-pyridinone beta-alanine) [TAT-AIF (370-394), Linear peptide, 38 amino acids long, N-terminal TAT fragment for cell uptake] | attenuated | prevented | precluded | precluded | 12 µM | –
Ac-CIKLKDGRKVC-NH2 [AIF (381-389) ox, Cyclic peptide, 11 amino acids long] | – | – | – | – | – | provides neuroprotective
